Data: the supplement of paper PMC11451515

Test system: NOMO1
Test: cell viability relative to DMSO control; higher = less cytotoxic
Settings: 48 h
How it was run: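 Before seeding, each leukemia line was adapted for at least four passages in each medium. NOMO1 or SEM cells (500 cells/well) and P12-Ichikawa cells (1000 cells/well) went into 1536-well plates at 5 μl, then received library compounds in DMSO by pin dosing across 11 threefold concentrations, 47 μM to 0.79 nM. Readout was CellTiter-Glo One luminescence after 48 h at 37°C, and viability is given as a per-plate percentage of DMSO wells, with cell-free wells as background.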

[1] = HPLM + 10% dialyzed FBS, 0.000781 µM
[2] = HPLM + 10% dialyzed FBS, 0.00234 µM
[3] = HPLM + 10% dialyzed FBS, 0.00702 µM
[4] = HPLM + 10% dialyzed FBS, 0.0211 µM
[5] = HPLM + 10% dialyzed FBS, 0.0632 µM
[6] = HPLM + 10% dialyzed FBS, 0.19 µM
[7] = HPLM + 10% dialyzed FBS, 0.569 µM
[8] = HPLM + 10% dialyzed FBS, 1.71 µM
[9] = HPLM + 10% dialyzed FBS, 5.12 µM
[10] = HPLM + 10% dialyzed FBS, 15.4 µM
[11] = HPLM + 10% dialyzed FBS, 46.1 µM
[12] = RPMI 5 mM glucose + 10% FBS, 0.000781 µM
[13] = RPMI 5 mM glucose + 10% FBS, 0.00234 µM
[14] = RPMI 5 mM glucose + 10% FBS, 0.00702 µM
[15] = RPMI 5 mM glucose + 10% FBS, 0.0211 µM
[16] = RPMI 5 mM glucose + 10% FBS, 0.0632 µM
[17] = RPMI 5 mM glucose + 10% FBS, 0.19 µM
[18] = RPMI 5 mM glucose + 10% FBS, 0.569 µM
[19] = RPMI 5 mM glucose + 10% FBS, 1.71 µM
[20] = RPMI 5 mM glucose + 10% FBS, 5.12 µM
[21] = RPMI 5 mM glucose + 10% FBS, 15.4 µM
[22] = RPMI 5 mM glucose + 10% FBS, 46.1 µM
[23] = RPMI 5 mM glucose + 10% dialyzed FBS, 0.000781 µM
[24] = RPMI 5 mM glucose + 10% dialyzed FBS, 0.00234 µM
[25] = RPMI 5 mM glucose + 10% dialyzed FBS, 0.00702 µM
[26] = RPMI 5 mM glucose + 10% dialyzed FBS, 0.0211 µM
[27] = RPMI 5 mM glucose + 10% dialyzed FBS, 0.0632 µM
[28] = RPMI 5 mM glucose + 10% dialyzed FBS, 0.19 µM
[29] = RPMI 5 mM glucose + 10% dialyzed FBS, 0.569 µM
[30] = RPMI 5 mM glucose + 10% dialyzed FBS, 1.71 µM
[31] = RPMI 5 mM glucose + 10% dialyzed FBS, 5.12 µM
[32] = RPMI 5 mM glucose + 10% dialyzed FBS, 15.4 µM
[33] = RPMI 5 mM glucose + 10% dialyzed FBS, 46.1 µM

How did the cell viability [1] turn out when `NCC(=O)Nc1ccc(-n2nc(C(F)(F)F)cc2-c2ccc3c(ccc4ccccc43)c2)cc1` was run?
The cell viability was 129%.

And the cell viability [2]?
Its cell viability is 123%.

And the cell viability [3]?
The cell viability was 123%.

What about the cell viability [4] of the same compound?
Its cell viability is 137%.

What about the cell viability [5] of the same compound?
The cell viability was 134%.

And the cell viability [6]?
Its cell viability is 124%.

And the cell viability [7]?
Its cell viability is 138%.

And the cell viability [8]?
Its cell viability is 147%.

And the cell viability [9]?
The cell viability was 131%.

What about the cell viability [10] of the same compound?
The cell viability was 108%.

What about the cell viability [11] of the same compound?
Its cell viability is 78.1%.

For `COC1=CC=C(C=C1)C2CC(=N/N2C3=CC=C(C=C3)[S+](N)([O-])=O)\C4=CC=CC=C4` (stereo not given), which cell viability [1] is on record?
The cell viability was 82.7%.

What about the cell viability [2] of the same compound?
Its cell viability is 91.2%.

What about the cell viability [3] of the same compound?
The cell viability was 98.8%.

What about the cell viability [4] of the same compound?
Its cell viability is 92.9%.

What about the cell viability [5] of the same compound?
The cell viability was 97.4%.

And the cell viability [6]?
The cell viability was 97.1%.

And the cell viability [7]?
The cell viability was 94.9%.

What about the cell viability [8] of the same compound?
The cell viability was 56.1%.

And the cell viability [9]?
Its cell viability is 24.4%.

And the cell viability [10]?
The cell viability was 3.71%.

And the cell viability [11]?
The cell viability was 1.86%.

And the cell viability [12]?
Its cell viability is 85.9%.

And the cell viability [13]?
Its cell viability is 85.1%.

What about the cell viability [14] of the same compound?
The cell viability was 92.5%.

What about the cell viability [15] of the same compound?
The cell viability was 102%.

And the cell viability [16]?
The cell viability was 102%.

And the cell viability [17]?
Its cell viability is 98.3%.

And the cell viability [18]?
The cell viability was 94.6%.

And the cell viability [19]?
The cell viability was 89.5%.

And the cell viability [20]?
The cell viability was 35.2%.

And the cell viability [21]?
The cell viability was 4.7%.

What about the cell viability [22] of the same compound?
The cell viability was 2.12%.

What about the cell viability [23] of the same compound?
Its cell viability is 82.7%.

And the cell viability [24]?
The cell viability was 93.8%.

What about the cell viability [25] of the same compound?
Its cell viability is 85.6%.

What about the cell viability [26] of the same compound?
The cell viability was 103%.

And the cell viability [27]?
The cell viability was 98%.

What about the cell viability [28] of the same compound?
The cell viability was 86.2%.

What about the cell viability [29] of the same compound?
Its cell viability is 93.3%.

What about the cell viability [30] of the same compound?
Its cell viability is 59%.

And the cell viability [31]?
The cell viability was 43.3%.

What about the cell viability [32] of the same compound?
The cell viability was 4.24%.

What about the cell viability [33] of the same compound?
Its cell viability is 1.96%.

What does the source list for `CCN(CC)CCN1C(=O)\C(=N/C2=CC=CC=C12)CC3=CC=C(OC)C=C3`?
cell viability [1]: 111%; cell viability [2]: 117%; cell viability [3]: 99.1%; cell viability [4]: 118%; cell viability [5]: 119%; cell viability [6]: 110%; cell viability [7]: 115%; cell viability [8]: 115%; cell viability [9]: 109%; cell viability [10]: 113%; cell viability [11]: 116%; cell viability [12]: 96.1%; cell viability [13]: 101%; cell viability [14]: 117%; cell viability [15]: 109%; cell viability [16]: 97.4%; cell viability [17]: 96.6%; cell viability [18]: 107%; cell viability [19]: 102%; cell viability [20]: 111%; cell viability [21]: 101%; cell viability [22]: 97.7%; cell viability [23]: 98.4%; cell viability [24]: 102%; cell viability [25]: 113%; cell viability [26]: 111%; cell viability [27]: 115%; cell viability [28]: 119%; cell viability [29]: 119%; cell viability [30]: 121%; cell viability [31]: 111%; cell viability [32]: 101%; cell viability [33]: 102%

What does the source list for `CNCC(O)C(O)C(O)C(O)CO.O=C(O)c1ccc(-c2cc3cccnc3c(-c3ccc4nonc4c3)n2)cc1`?
cell viability [1]: 105%; cell viability [2]: 110%; cell viability [3]: 115%; cell viability [4]: 111%; cell viability [5]: 121%; cell viability [6]: 126%; cell viability [7]: 112%; cell viability [8]: 122%; cell viability [9]: 112%; cell viability [10]: 110%; cell viability [11]: 76.7%; cell viability [12]: 118%; cell viability [13]: 119%; cell viability [14]: 119%; cell viability [15]: 118%; cell viability [16]: 115%; cell viability [17]: 112%; cell viability [18]: 125%; cell viability [19]: 106%; cell viability [20]: 117%; cell viability [21]: 119%; cell viability [22]: 102%; cell viability [23]: 99%; cell viability [24]: 105%; cell viability [25]: 124%; cell viability [26]: 120%; cell viability [27]: 114%; cell viability [28]: 111%; cell viability [29]: 127%; cell viability [30]: 111%; cell viability [31]: 111%; cell viability [32]: 118%; cell viability [33]: 74.4%
